Test results as given in paper PMC4594923, “Food Polyphenols Fail to Cause a Biologically Relevant Reduction of COX-2 Activity” (PLoS ONE, 2015).
Entries after “also recorded” stand apart in the source; their conditions may differ. Marks after values point to notes of the source that are not given here.

Columns and labels:
ovine recombinant COX–1 [1] = target: T1, ovine recombinant COX–1 (Ovis aries, UniProt P05979); conditions: based on PGE2 formation, n=3, same assay conditions; cited from earlier work
T1 sequence (P05979 25-600): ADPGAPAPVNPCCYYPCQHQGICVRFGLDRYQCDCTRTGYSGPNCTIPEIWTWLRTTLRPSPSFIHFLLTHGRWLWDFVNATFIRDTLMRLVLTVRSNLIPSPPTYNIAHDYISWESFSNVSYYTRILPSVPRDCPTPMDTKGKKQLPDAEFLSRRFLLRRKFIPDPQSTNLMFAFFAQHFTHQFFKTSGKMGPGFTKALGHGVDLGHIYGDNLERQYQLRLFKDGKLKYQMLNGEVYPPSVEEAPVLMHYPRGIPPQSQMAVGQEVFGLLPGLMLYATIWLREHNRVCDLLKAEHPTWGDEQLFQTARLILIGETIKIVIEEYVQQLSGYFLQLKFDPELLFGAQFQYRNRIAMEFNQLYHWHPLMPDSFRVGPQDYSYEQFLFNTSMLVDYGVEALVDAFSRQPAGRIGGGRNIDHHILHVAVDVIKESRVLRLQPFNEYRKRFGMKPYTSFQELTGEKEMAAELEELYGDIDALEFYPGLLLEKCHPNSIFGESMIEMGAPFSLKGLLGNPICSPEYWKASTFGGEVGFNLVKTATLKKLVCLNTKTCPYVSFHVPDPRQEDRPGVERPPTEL

COX–2 protein [2] = conditions: Western Blot, same assay conditions; cited from earlier work
COX–2 protein [3] = conditions: Western Blot, same assay conditions; cited from earlier work; remark: listed apart in the source
ovine recombinant COX–1 [4] = target: T1, ovine recombinant COX–1; assay: cell-free COX–1 enzyme assay (PGE2 formation, LC-MS); format: biochemical; parameters: purchased Cayman Chemicals/ Biomol, Hamburg, Germany
Description: The in vitro assays were performed as described [6, 16, 18] and COX metabolites were quantified by LC-MS [18].
Primary human monocytes were freshly isolated from human blood. Blood was collected from healthy human subjects after written informed consent was obtained. […] After 24 h, the supernatant was sampled for LC-MS and cells were collected for the COX–2 expression analysis by Western Blotting.
(§1) GraphPad Prism 5.0 (GraphPad Software, San Diego, USA) was used for data analysis, the fitting of dose response curves and calculation of the IC50 values. Statistical differences were determined by Dunnetts test (LPS vs. other groups).

[5] = system: arachidonic acid (AA) cascade; assay: kidney tissue oxylipin/PG levels in LPS induced sepsis in mice;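 also: male C57BL/6N mice challenged with LPS, kidney taken 24 h later, oxylipins quantified by LC-MS after solid-phase extraction of tissue homogenate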
Excerpt: Twelve week old male C57BL/6N mice (Charles River, Sulzfeld, Germany) were used for all experiments. C57BL/6 male mice (H2^b, 11–13 weeks of age) were obtained from Charles River (Sulzfeld, Germany). Animals were cared for in accordance with the institution’s guidelines for experimental animals and with the guidelines of the American Physiological Society. […] Mice were monitored closely and if they appeared compromised (i.e. inactivity, no intake of food or water) after compound or LPS injection the experiment was terminated.
Oxylipin levels were analyzed in plasma and tissues by LC-MS following SPE extraction of 200 μl plasma or tissue homogenate (50 mg) on Chromabond C18 ec cartridges (Machery-Nagel, Düren, Germany) [19].
as §1

COX–2 = conditions: different murine colitis models; cited from earlier work
[6] = system: arachidonic acid (AA) cascade; assay: plasma oxylipin/PG levels in LPS induced sepsis in mice;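 as to all read-outs here: male C57BL/6N mice given LPS, plasma oxylipins quantified by LC-MS after solid-phase extraction, pretreatment or vehicle given intraperitoneally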; format: in vivo, C57BL/6N mice; conditions: mice, 24 h after LPS, vs. LPS group; for plasma PGE2 level: compound i. p. 100 mg/kg bw 2 h before LPS (10 mg/kg bw i. p.)
[7] = kidney tissue 24 h after LPS treatment, LPS +, mean
[8] = kidney tissue 24 h after LPS treatment, LPS +, mean, < = below LOQ
[9] = mice, compound i. p. 100 mg/kg bw 2 h before LPS, 24 h after LPS, vs. LPS group

## C[C@@H]1C[C@H]2[C@@H]3CCC4=CC(=O)C=C[C@]4(C)[C@@]3(F)[C@@H](O)C[C@]2(C)[C@@]1(O)C(=O)CO [dexamethasone]
Ovine recombinant COX–1 [1]
  IC50 (95% CI), cell-free – COX-1: no effect (up to 100 µM)
COX–2 protein [2]
  COX-2 Expression, primary monocytes: 1 µM - 3 nM: COX-2 ↓
COX–2 protein [3]
  COX-2 Expression, HCA-7: no effect (up to 100 µM)

## Oc1ccc(/C=C/c2cc(O)cc(O)c2)cc1 [Resveratrol, resveratrol]
Ovine recombinant COX–1 [4]
  IC50: 490 nM
  effect on COX–1 dependent PGE2 formation, cell-free enzyme assay: dose-dependently decreased; also recorded: inhibited
[5]; [7]
  1a,1b-dihomo-PGF2α: 3.9^‡ nM
  4,5-DiHDPE: 15 nM
  4-HDHA: 16 nM
  5(6)-EpETrE: 66 nM
  5,6-DiHETrE: 1.5 nM
  5-HEPE: 1.1 nM
  5-HETE: 12 nM
  5-oxo-ETE: 17 nM
  6-keto-PGF1α: 80^* nM
  7,8-DiHDPE: 1.7 nM
  7-HDHA: 2.7 nM
  8(9)-EpETrE: 15 nM
  8,9-DiHETrE: 1.6 nM
  8-HDHA: 16 nM
  8-HETE: 4.2 nM
  8-iPF2a: 3.2^‡ nM
  9(10)-EpODE: 8.2 nM
  9(10)-EpOME: 81 nM
  9(10)-Epoxystearic acid: 40 nM
  9,10,13-TriHOME: 7.4 nM
  9,10-DiHODE: 1.3 nM
  9,10-DiHOME: 22 nM
  9,10-Dihydroxystearic acid: 60 nM
  9,12,13-TriHOME: 45 nM
  9-HETE: 3.1 nM
  9-HODE: 350^* nM
  9-HOTrE: 3.9 nM
  9-oxo-ODE: 43 nM
  10(11)-EpDPE: 30 nM
  10,11-DiHDPE: 2.3 nM
  10-HDHA: 3.5 nM
  11(12)-EpETE: 1.5 nM
  11(12)-EpETrE: 35 nM
  11,12-DiHETrE: 2.6 nM
  11-HDHA: 4.9 nM
  11-HETE: 31^‡ nM
  12(13)-EpODE: 3.4 nM
  12(13)-EpOME: 59 nM
  12,13-DiHOME: 48 nM
  12-HEPE: 2.1 nM
  12-HETE: 24 nM
  13(14)-EpDPE: 24 nM
  13,14-DiHDPE: 3.2 nM
  13,14-dihydro-15-keto-PGF2α: 4.3^‡ nM
  13-HDHA: 11^‡ nM
  13-HODE: 270 nM
  13-HOTrE: 3.6 nM
  13-oxo-ODE: 6.1 nM
  14(15)-EpETE: 1.7 nM
  14(15)-EpETrE: 28 nM
  14,15-DiHETE: 0.62 nM
  14,15-DiHETrE: 7.1 nM
  14-HDHA: 12 nM
  15(16)-EpODE: 24 nM
  15(S)-HETrE: 7.4^‡ nM
  15,16-DiHODE: 20 nM
  15-HETE: 38^‡ nM
  15-oxo-ETE: 7.5 nM
  16(17)-EpDPE: 23 nM
  16,17-DiHDPE: 8.5 nM
  16-HDHA: 6.9 nM
  17(18)-EpETE: 2.5 nM
  17,18-DiHETE: 2.6^* nM
  17-HDHA: 17 nM
  18-HEPE: 1.3 nM
  19(20)-EpDPE: 43 nM
  19,20-DiHDPE: 68 nM
  20-HDHA: 19 nM
  20-HEPE: 5.3 nM
  EKODE: 45 nM
  PGD2: 20^† nM
  PGE1: 11^† nM
  PGE2: 210^‡ nM
  PGF1α: 6.2^† nM
  PGF2α: 70^‡ nM
  TXB2: 3.8^† nM
[5]; [8]
  5,6-DiHETE: < 0.25 nM
  5-iPF2α: < 1.0 nM
  8(9)-EpETE: < 1.0 nM
  12,13-DiHODE: < 2.0 nM
  13,14-dihydro-15-keto-PGE1: 0.6 nM
  20-HETE: < 2.7 nM
  PGD1: 0.72 nM
[5]; kidney tissue 24 h after LPS treatment, LPS +, mean, second listing of PGF2α (r9)
  PGF2α: 70 nM
[5]; [9]
  kidney 6-keto-PGF1α level: increased
  kidney 8-iPGF2α level: increased
  kidney 13,14-dihydro-15-keto-PGE1 level: increased
  kidney PGE2 level: increased
  kidney PGF2α level: increased
COX–2
  COX–2 expression and PGE2 production: reduced COX–2 expression and PGE2 production
[6]
  plasma PGE2 level: increased
[6]; listed as resveratrol
  plasma PGE2 level: elevated
[6]; compound i. p. 100 mg/kg bw 2 h before LPS
  sum of linoleic acid (LA) derived epoxy-metabolites in plasma: decrease
